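Dose response: 5 concentrations. Exposure: 48 h. Format: 96-well plates. Endpoint: linear interpolation; highest concentration if not reached. At the GI50, growth is halved. At the TGI there is no net growth.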
Experiments:
Assay in all cases: NCI-60 cell line screen, 48 h
[1] = test system: PC-3 prostate
[2] = test system: HT29 colon
[3] = test system: COLO 205 colon
[4] = test system: UACC-257 melanoma
[5] = test system: HS 578T breast
[6] = test system: MCF7 breast
[7] = test system: SNB-75 CNS
[8] = test system: OVCAR-3 ovarian
[9] = test system: SK-OV-3 ovarian
[10] = test system: UO-31 renal
[11] = test system: SK-MEL-5 melanoma
[12] = test system: MALME-3M melanoma
[13] = test system: NCI/ADR-RES ovarian
[14] = test system: LOX IMVI melanoma
[15] = test system: MDA-MB-468 breast
[16] = test system: NCI-H226 lung
[17] = test system: OVCAR-8 ovarian
[18] = test system: TK-10 renal
[19] = test system: NCI-H522 lung
[20] = test system: RXF 393 renal
[21] = test system: 786-0 renal
[22] = test system: MDA-MB-435
[23] = test system: HL-60(TB) leukemia
[24] = test system: HCC-2998 colon
[25] = test system: A549 NSCLC
[26] = test system: T-47D breast
[27] = test system: ACHN renal
[28] = test system: CCRF-CEM leukemia
[29] = test system: NCI-H23 lung
[30] = test system: BT-549 breast
[31] = test system: M14 melanoma
[32] = test system: U251 CNS
[33] = test system: DU-145 prostate
[34] = test system: SF-539 CNS
[35] = test system: UACC-62 melanoma
[36] = test system: HCT-15 colon
[37] = test system: MDA-MB-231 breast
[38] = test system: NCI-H460 lung
[39] = test system: KM12 colon
[40] = test system: HOP-62 NSCLC
[41] = test system: SNB-19 CNS
[42] = test system: SW-620 colon
[43] = test system: SN12C renal
[44] = test system: CAKI-1 renal
[45] = test system: MOLT-4 leukemia
[46] = test system: SF-268 CNS
[47] = test system: IGROV1 ovarian
[48] = test system: SF-295 CNS
[49] = test system: SR leukemia
[50] = test system: HCT-116 colon
[51] = test system: OVCAR-5 ovarian
[52] = test system: OVCAR-4 ovarian
[53] = test system: EKVX NSCLC
[54] = test system: K-562 leukemia
[55] = test system: HOP-92 NSCLC
[56] = test system: A498 renal
[57] = test system: SK-MEL-28 melanoma

## CC[C@]12C=CCN3CC[C@@]4(c5ccc(OC)cc5N(C)[C@H]4[C@@](O)(C(=O)OC)[C@@H]1OC(=O)CCC[P+](c1ccc(OC)cc1)(c1ccc(OC)cc1)c1ccc(OC)cc1)[C@@H]32
[1]
  GI50: 414 nM
  TGI: 2150 nM
[2]
  GI50: 284 nM
  TGI: 859 nM
[3]
  GI50: 192 nM
  TGI: 369 nM
[4]
  GI50: 489 nM
  TGI: 1760 nM
[5]
  GI50: 1180 nM
  TGI: 3970 nM
[6]
  GI50: 383 nM
  TGI: 1430 nM
[7]
  GI50: 178 nM
  TGI: 735 nM
[8]
  GI50: 422 nM
  TGI: 1570 nM
[9]
  GI50: 595 nM
  TGI: 1680 nM
[10]
  GI50: 3090 nM
  TGI: 15500 nM
[11]
  GI50: 722 nM
  TGI: 1870 nM
[12]
  GI50: 224 nM
  TGI: 536 nM
[13]
  GI50: 18100 nM
  TGI: 49700 nM
[14]
  GI50: 490 nM
  TGI: 1590 nM
[15]
  GI50: 166 nM
  TGI: 491 nM
[16]
  GI50: 1430 nM
  TGI: 3870 nM
[17]
  GI50: 1420 nM
  TGI: 3870 nM
[18]
  GI50: 1400 nM
  TGI: 2870 nM
[19]
  GI50: 334 nM
  TGI: 1180 nM
[20]
  GI50: 362 nM
  TGI: 1340 nM
[21]
  GI50: 1530 nM
  TGI: 3370 nM
[22]
  GI50: 381 nM
  TGI: 1420 nM
[23]
  GI50: 237 nM
  TGI: 800 nM
[24]
  GI50: 446 nM
  TGI: 1570 nM
[25]
  GI50: 591 nM
  TGI: 4390 nM
[26]
  GI50: 309 nM
  TGI: 1600 nM
[27]
  GI50: 2760 nM
  TGI: 7890 nM
[28]
  GI50: 582 nM
  TGI: 2020 nM
[29]
  GI50: 472 nM
  TGI: 1660 nM
[30]
  GI50: 532 nM
  TGI: 1350 nM
[31]
  GI50: 638 nM
  TGI: 1870 nM
[32]
  GI50: 360 nM
  TGI: 1370 nM
[33]
  GI50: 635 nM
  TGI: 4340 nM
[34]
  GI50: 622 nM
  TGI: 1670 nM
[35]
  GI50: 396 nM
  TGI: 1170 nM
[36]
  GI50: 2510 nM
  TGI: 7000 nM
[37]
  GI50: 254 nM
  TGI: 654 nM
[38]
  GI50: 666 nM
  TGI: 2360 nM
[39]
  GI50: 464 nM
  TGI: 1560 nM
[40]
  GI50: 1040 nM
  TGI: 2670 nM
[41]
  GI50: 341 nM
  TGI: 1350 nM
[42]
  GI50: 557 nM
  TGI: 2050 nM
[43]
  GI50: 458 nM
  TGI: 1510 nM
[44]
  GI50: 4360 nM
  TGI: 9190 nM
[45]
  GI50: 621 nM
  TGI: 2380 nM
[46]
  GI50: 318 nM
  TGI: 1460 nM
[47]
  GI50: 455 nM
  TGI: 1600 nM
[48]
  GI50: 1250 nM
  TGI: 3030 nM
[49]
  GI50: 397 nM
  TGI: 1780 nM
[50]
  GI50: 469 nM
  TGI: 1660 nM
[51]
  GI50: 686 nM
  TGI: 2210 nM
[52]
  GI50: 537 nM
  TGI: 3440 nM
[53]
  GI50: 737 nM
  TGI: 3350 nM
[54]
  GI50: 556 nM
  TGI: 2130 nM
[55]
  GI50: 279 nM
  TGI: 1080 nM
[56]
  GI50: 2020 nM
  TGI: 5670 nM
[57]
  GI50: 477 nM
  TGI: 1640 nM
